Results reported in PMC4910395 (Bioorganic & medicinal chemistry, 2015).
Counter-ions that a name gives are not always drawn. Like-named read-outs stand apart in the source and are kept apart here.

Experiments:
[1] = biological target: T1, NMDA receptor (NR), [^3H]ifenprodil binding site (Rattus norvegicus, UniProt P35439+Q00960); settings: pH 7.4
[2] = biological target: NMDA receptor (NR), channel binding site labeled with [^3H]MK-801 (Rattus norvegicus, UniProt P35439+Q00959+Q00960); experiment: Inhibition of [^3H]MK-801 binding to rat cortical membranes; settings: for [^3H]MK-801 Ratio IC50 (30 µM spm)/IC50 (no spm): mean ratio, spermine sensitivity; for IC50: in presence of 30 µM spermine
Sequence of NMDA receptor (NR), channel binding site labeled with [^3H]MK-801 (Q00959 23-1464, other chains not shown): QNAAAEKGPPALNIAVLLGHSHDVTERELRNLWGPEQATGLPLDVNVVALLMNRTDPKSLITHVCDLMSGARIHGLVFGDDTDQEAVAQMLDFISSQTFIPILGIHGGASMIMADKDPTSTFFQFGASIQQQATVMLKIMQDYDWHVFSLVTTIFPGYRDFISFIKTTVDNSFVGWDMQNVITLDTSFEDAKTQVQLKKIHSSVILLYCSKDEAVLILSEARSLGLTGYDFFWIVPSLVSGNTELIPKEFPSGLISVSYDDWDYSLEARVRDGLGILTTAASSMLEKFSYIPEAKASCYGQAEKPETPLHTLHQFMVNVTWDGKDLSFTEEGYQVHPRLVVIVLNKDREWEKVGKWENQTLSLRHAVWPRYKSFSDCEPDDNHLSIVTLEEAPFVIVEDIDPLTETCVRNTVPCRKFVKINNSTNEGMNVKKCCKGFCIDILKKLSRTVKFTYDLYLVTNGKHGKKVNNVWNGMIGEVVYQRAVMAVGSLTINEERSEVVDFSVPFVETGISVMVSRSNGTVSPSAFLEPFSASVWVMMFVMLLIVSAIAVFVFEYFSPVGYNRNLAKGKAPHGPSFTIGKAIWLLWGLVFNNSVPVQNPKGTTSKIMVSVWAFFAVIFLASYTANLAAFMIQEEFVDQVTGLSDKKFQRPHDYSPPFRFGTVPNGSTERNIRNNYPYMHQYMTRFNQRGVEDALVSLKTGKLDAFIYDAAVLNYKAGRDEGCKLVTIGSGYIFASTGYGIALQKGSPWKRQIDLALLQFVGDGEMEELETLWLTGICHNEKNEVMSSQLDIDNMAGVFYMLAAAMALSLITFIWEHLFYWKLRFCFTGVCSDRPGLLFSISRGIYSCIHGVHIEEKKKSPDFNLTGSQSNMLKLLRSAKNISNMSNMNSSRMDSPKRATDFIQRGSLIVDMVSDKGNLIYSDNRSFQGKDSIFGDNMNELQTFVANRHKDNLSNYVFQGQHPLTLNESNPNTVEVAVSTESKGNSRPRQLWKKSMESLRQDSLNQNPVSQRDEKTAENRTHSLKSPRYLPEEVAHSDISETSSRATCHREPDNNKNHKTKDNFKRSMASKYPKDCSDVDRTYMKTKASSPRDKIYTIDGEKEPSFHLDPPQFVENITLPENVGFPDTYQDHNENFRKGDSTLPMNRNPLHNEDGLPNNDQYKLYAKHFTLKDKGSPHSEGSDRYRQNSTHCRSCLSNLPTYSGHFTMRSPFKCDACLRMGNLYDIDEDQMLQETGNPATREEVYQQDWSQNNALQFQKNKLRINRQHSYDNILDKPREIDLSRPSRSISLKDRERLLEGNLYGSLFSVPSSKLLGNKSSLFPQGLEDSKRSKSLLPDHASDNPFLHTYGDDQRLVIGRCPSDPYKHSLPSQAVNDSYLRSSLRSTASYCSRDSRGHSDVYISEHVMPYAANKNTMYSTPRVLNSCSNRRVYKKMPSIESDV
Sequence of NMDA receptor (NR), channel binding site labeled with [^3H]MK-801 (Q00960 27-1482, other chains not shown): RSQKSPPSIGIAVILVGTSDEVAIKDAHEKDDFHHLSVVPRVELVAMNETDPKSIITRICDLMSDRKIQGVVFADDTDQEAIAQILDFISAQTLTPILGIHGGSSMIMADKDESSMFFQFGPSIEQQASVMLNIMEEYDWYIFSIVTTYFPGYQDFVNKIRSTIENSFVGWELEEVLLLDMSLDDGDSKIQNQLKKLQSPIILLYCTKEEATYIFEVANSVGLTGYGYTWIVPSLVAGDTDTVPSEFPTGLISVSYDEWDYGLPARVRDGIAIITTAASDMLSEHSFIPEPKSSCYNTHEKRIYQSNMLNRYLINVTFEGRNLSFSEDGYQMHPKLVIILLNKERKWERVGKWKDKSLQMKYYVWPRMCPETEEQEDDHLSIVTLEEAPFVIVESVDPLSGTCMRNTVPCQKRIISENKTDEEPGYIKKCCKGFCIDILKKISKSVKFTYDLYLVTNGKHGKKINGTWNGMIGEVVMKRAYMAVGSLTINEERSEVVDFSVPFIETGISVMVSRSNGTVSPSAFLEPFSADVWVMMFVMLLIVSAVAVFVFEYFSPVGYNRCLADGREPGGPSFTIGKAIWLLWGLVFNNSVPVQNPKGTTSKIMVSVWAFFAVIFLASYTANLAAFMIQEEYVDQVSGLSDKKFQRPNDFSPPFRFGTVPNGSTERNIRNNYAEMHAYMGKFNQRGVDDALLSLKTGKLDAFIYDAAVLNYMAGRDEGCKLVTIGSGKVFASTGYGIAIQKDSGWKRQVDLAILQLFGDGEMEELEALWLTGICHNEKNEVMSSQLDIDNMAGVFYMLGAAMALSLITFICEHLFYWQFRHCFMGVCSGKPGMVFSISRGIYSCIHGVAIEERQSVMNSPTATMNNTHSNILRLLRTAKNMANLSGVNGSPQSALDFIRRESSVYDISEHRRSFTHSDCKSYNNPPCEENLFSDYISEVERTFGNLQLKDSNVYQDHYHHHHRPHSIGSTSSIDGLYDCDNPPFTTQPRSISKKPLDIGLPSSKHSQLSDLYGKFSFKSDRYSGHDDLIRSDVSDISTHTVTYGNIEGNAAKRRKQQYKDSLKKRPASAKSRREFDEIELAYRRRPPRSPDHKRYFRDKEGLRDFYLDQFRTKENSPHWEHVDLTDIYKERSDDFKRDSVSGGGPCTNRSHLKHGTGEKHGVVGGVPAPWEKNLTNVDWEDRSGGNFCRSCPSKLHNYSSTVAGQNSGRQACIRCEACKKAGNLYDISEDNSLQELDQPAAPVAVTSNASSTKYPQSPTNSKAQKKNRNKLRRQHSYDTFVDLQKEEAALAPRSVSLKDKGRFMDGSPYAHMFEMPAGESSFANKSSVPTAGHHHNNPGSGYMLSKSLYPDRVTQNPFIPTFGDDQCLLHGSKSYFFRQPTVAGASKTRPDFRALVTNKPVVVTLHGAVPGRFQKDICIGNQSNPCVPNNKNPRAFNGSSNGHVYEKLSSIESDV

[3] = biological target: NMDA receptor, [^3H]MK-801 binding; settings: read-out: IC50, inhibition of [^3H]MK-801 binding to rat brain membranes; 5, 4 and 3 methylene groups between the oxygens; cited from earlier work
[4] = biological target: T1, NMDA receptor (NR), [^3H]ifenprodil binding site; experiment: biochemical
NRs in native membranes = settings: native membranes from rat frontoparietal cortex and hippocampus; cited from earlier work
[5] = read-out: [^3H]MK-801 IC50 ± SD (n), 30 µM spm
[6] = [^3H]MK-801 IC50 ± SD (n), 30 µM spm

T1 sequence (Q00960 27-1482, other chains not shown): as above

[^3H]MK-801 Ratio IC50 (30 µM spm)/IC50 (no spm) [2] | Compound | also measured
 | 1,5-Bis(1-amidino-3-methoxyphenylamino)pentane dihydrochloride [compound 9] | IC50 [1]: 4.54 µM
33.6 (2) | N=C(N)NCCCCNC(=N)N [Arcaine, reference compound] | 
20.2 ± 6.1 (3) | N=C(N)c1ccc(SCCOCCSc2ccc(C(=N)N)cc2)cc1 [compound 5] | IC50 [2, 6]: 23.8 ± 2.7 µM
26.2 (2) | N=C(N)c1ccc(N2CCN(c3ccc(C(=N)N)cc3)CC2)cc1 [compound 16] | 
21.8 (2) | N=C(NC1CC1)c1ccc(N2CCN(c3ccc(C(=N)NC4CC4)cc3)CC2)cc1 [compound 18] | 
21.8 (2) | CCCNC(=N)c1ccc(N2CCN(c3ccc(C(=N)NCCC)cc3)CC2)cc1 [compound 19] | 
16.8 (2) | CC(C)(C)/N=C(\N)c1ccc(N2CCCN(c3ccc(/C(N)=N/C(C)(C)C)cc3)CC2)cc1 [compound 27] | 
9.72 (2) | N=C(NCCCO)c1ccc(N2CCCN(c3ccc(/C(N)=N/CCCO)cc3)CC2)cc1 [compound 31] | 
30.1 (2) | c1cc(N2CCCN(c3ccc(C4=NCCN4)cc3)CC2)ccc1C1=NCCN1 [compound 32] | 
30.2 (2) | CN(CCNc1ccc(C(=N)N)cc1)c1ccc(C(=N)N)cc1 [compound 35] | 
20.9 (2) | CN(CCN(C)c1ccc(C(=N)N)cc1)c1ccc(C(=N)N)cc1 [compound 37] | 
11.8 (2) | CCN(CCN(CC)c1ccc(C(=N)N)cc1)c1ccc(C(=N)N)cc1 [compound 38] | 
17.0 (2) | N=C(N)c1ccc(NCCCNc2ccc(C(=N)N)cc2)cc1 [compound 39] | 
17.2 (2) | N=C(N)c1ccc(NCCCCNc2ccc(C(=N)N)cc2)cc1 [compound 41] | 
5.26 (2) | N=C(N)c1ccc(NCCCCCCNc2ccc(C(=N)N)cc2)cc1 [compound 42] | 
 | N=C(N)c1ccc(NC(=O)CCCC(=O)Nc2ccc(C(=N)N)cc2)cc1 [compound 45] | IC50 [4]: 65.6 µM; Fold weaker than pentamidine ([2]; no spermine): 100 fold

[^3H]MK-801 Ratio IC50 (30 µM spm)/IC50 (no spm) [2] | Compound | also measured
3.46 (2) | N=C(N)c1ccc(NC(=O)CCCCC(=O)Nc2ccc(C(=N)N)cc2)cc1 [compound 46] | 
4.59 (2) | N=C(N)c1ccc(C(=O)NCCCCCCNC(=O)c2ccc(C(=N)N)cc2)cc1 [compound 55] | 
 | N=C(N)c1ccc(OCc2ccccc2COc2ccc(C(=N)N)cc2)cc1 [compound 57] | IC50 [4]: 2.05 µM
 | N=C(N)c1ccc(OCc2ccc(COc3ccc(C(=N)N)cc3)cc2)cc1 [compound 59] | IC50 [4]: 16.8 µM
0.97 (2) | N=C(N)c1ccc(NC(=O)c2cccc(C(=O)Nc3ccc(C(=N)N)cc3)c2)cc1 [compound 61] | 
0.96 (2) | N=C(N)c1ccc(NC(=O)c2ccc(C(=O)Nc3ccc(C(=N)N)cc3)cc2)cc1 [compound 62] | 
1.22 (2) | N=C(N)c1ccc(NC(=O)c2cccc(C(=O)Nc3ccc(C(=N)N)cc3)n2)cc1 [compound 65] | 
1.85 (2) | N=C(N)c1ccc(C(=O)Nc2cccc(NC(=O)c3ccc(C(=N)N)cc3)n2)cc1 [compound 67] | 
2.56 (2) | CC/N=C(\N)c1ccc(-c2ccc(-c3ccc(/C(N)=N/CC)cc3)o2)cc1 [compound 70] | 
1.50 (2) | N=C(N)c1ccc(-c2ccc(-c3ccc(C(=N)N)s3)s2)s1 [compound 71, 5,5″-Diamidino-2,2′:5′,2″-terthiophene dihydrochloride] | 
4.63 (2) | N=C(N)c1ccc(-c2ccc(-c3ccc(C(=N)N)cc3)c(F)c2)cc1 [compound 73] | 
4.14 (2) | N=C(N)c1ccc(-c2ccc(-c3nc4ccc(C(=N)N)cc4[nH]3)s2)cc1 [compound 74] | 
4.26 (2) | N=C(N)c1ccc(-c2ccc(-c3ccc(-c4ccc(C(=N)N)o4)s3)s2)o1 [compound 75] | 
 | CC(C(O)c1ccc(O)cc1)N1CCC(Cc2ccccc2)CC1 (stereo not drawn) [ifenprodil] | Share of NRs blocked with high affinity (NRs in native membranes): 23%
 | N,N-Bis[2-(1-amidino-3-methoxyphenoxy)ethyl]-4-methylbenzenesulfonamide dihydrochloride [compound 15] | IC50 [1]: 0.84 µM; IC50 [2, 5]: 28.7 ± 4.4 µM

Compound | [^3H]MK-801 Ratio IC50 (30 µM spm)/IC50 (no spm) [2] | also measured
1,5-Bis[(1-amidinophenyl)N-methylamino]-3-oxapentane [compound 11] | 15.2 ± 2.2 (3) | IC50 [1]: 21.9 ± 5.2 µM; IC50 [2, 5]: 12.5 ± 1.8 µM
N=C(N)c1ccc(OCCCCCOc2ccc(C(=N)N)cc2)cc1 [compound 1, Pentamidine, reference compound] | 9.1 ± 2.5 (7) | IC50 [3]: 2.59 µM; IC50 [4]: 32.5 µM; IC50 [2, 6]: 24.9 ± 5.7 µM
N=C(N)c1ccc(NCCCCCCCNc2ccc(C(=N)N)cc2)cc1 [compound 43, 1,7-Bis[(1-amidinophenyl)amino]heptane dihydrochloride] | 5.37 (2) | 
N=C(N)c1ccc(NCCCCCCCCNc2ccc(C(=N)N)cc2)cc1 [compound 44] | 4.37 (2) | 
N=C(N)c1ccc(OC(=O)c2ccc(C(=O)Oc3ccc(C(=N)N)cc3)cc2)cc1 [compound 60] | 3.98 (2) | IC50 [4]: 38.6 µM
